Tests used:
MCF-7 cells = experiment: Inhibition of proliferation of MCF-7 cells by MTT assay; format: cell-based; settings: Homo sapiens, MCF7, 48 hours
Experimental: The inhibitory effect of the compound on the proliferation of MCF-7 cells (commercially available from ATCC) was determined by the MTT method in vitro. […] Each compound was dissolved in dimethyl sulfoxide (DMSO) to obtain a solution with a concentration of 10 mM, and then diluted to the desired concentration with a phosphate buffer solution. The solution was added to the above 96-well plate. Each concentration has 2 wells with 10 μl per well. Each concentration was tested in duplicate. As a control, DMSO was diluted in the corresponding gradient and then added to the plate. After the 96-well plate was cultured in a 37° C., 5% CO2 cell incubator for 48 hours, 20 μl of MTT solution in 5 mg/ml was added to each well, and it was cultured in the incubator for another 3 to 4 hours. 100 μl of lysate was added to each well and the cells were further incubated overnight in the incubator to fully dissolve the formazan crystals generated. The light absorption value at 492 nm was measured. The relative survival rate of the cells after the compound treatment was calculated based on the light absorption value. The IC50 of the compound against MCF-7 cells was calculated by software.

CDK4 [1] = target: T1, CDK4 (Homo sapiens, UniProt P11802); experiment: CDK4 inhibition by Caliper assay; format: biochemical; settings: compound 100 nM
Experimental: (§1) The experimental steps were as follows:
(§2) Preparation of 1×kinase reaction buffer (50 mM HEPES, PH 7.5; 0.0015% Brij-35) and kinase reaction termination solution (100 mM HEPES, PH 7.5; 0.0015% Brij-35; 0.2% Coating Reagent; 50 mM EDTA) preparation of experimental samples: 100 μL of 5 μM sample solution (dissolved in 100% DMSO) was added to a 96-well plate to obtain a 50×sample solution. As controls, two wells containing only 100 μL of 100% DMSO were set on the same plate. One was served as a control without samples and the other was served as a control without enzymes. 10 μL of sample and 90 μL of 1×kinase reaction buffer were added to a 96-well plate as a transfer plate. The transfer plate was shaken for 10 minutes.
(§3) Preparation of the test plate: taking 5 μL of each of the prepared samples in the 96-well transfer plate into a 384-well plate. Kinase reaction: to 5 μL of 5×compound solution (dissolved in DMSO, diluted 10 times with water) was added 10 μL of 2.5×CDK4/6 kinase solution (kinase was diluted with 1×kinase reaction buffer), which was incubated at room temperature for 10 min, and then 10 μL of 2.5×substrate peptide solution (FAM-labeled peptide and ATP were diluted with 1×kinase reaction buffer) was added. Termination of the kinase reaction: 25 μL of kinase reaction termination solution was added after being reacted at 28° C. for a period of time. The fluorescence (F) was tested on a Caliper and data was collected. The inhibition rate of kinase activity was calculated: the percent inhibition rate of kinase activity=(FDMSO control−Fsample)/(FDMSO control−Fnegative control)×100%, with DMSO as the solution control, and no kinase as the negative control.
Target sequence in this assay (P11802 whole entry, species assumed): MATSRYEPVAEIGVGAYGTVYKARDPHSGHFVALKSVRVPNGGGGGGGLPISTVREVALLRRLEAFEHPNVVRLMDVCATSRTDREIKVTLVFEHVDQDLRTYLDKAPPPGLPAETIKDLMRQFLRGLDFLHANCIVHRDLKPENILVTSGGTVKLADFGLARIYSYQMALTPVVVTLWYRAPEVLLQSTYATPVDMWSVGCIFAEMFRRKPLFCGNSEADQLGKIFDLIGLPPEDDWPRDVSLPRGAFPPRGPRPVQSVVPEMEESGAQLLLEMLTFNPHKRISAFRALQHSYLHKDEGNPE
Target sequence in this assay (P30281 whole entry partner, species assumed): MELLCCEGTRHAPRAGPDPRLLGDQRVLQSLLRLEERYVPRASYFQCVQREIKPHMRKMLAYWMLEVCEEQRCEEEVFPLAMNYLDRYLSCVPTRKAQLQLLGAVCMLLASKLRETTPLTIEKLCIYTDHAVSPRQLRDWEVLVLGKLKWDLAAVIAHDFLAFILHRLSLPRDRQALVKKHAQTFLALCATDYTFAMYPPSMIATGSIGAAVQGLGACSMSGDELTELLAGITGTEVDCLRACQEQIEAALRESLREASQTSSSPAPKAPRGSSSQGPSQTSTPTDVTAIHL

CDK6 [2] = target: T2, CDK6 (Homo sapiens, UniProt Q00534); experiment: CDK6 inhibition by Caliper assay; format: biochemical; settings: compound 100 nM
Experimental: as §1, §2, §3
Target sequence in this assay (Q00534 whole entry, species assumed): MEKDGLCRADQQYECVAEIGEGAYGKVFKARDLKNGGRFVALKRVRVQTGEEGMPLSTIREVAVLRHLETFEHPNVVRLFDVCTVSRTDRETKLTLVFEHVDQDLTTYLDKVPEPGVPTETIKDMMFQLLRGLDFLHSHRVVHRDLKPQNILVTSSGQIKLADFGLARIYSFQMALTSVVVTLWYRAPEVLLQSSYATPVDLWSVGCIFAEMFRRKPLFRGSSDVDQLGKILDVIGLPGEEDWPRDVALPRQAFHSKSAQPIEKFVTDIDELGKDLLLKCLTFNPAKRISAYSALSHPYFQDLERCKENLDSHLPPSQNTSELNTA
Target sequence in this assay (P30281 whole entry partner, species assumed): as the sequence (P30281 whole entry partner, species assumed) above

CDK4 [3] = target: T1, CDK4; experiment: CDK4 protein degradation activity by Western blot in MCF-7 cells; format: cell-based; design: host or cells: MCF-7; settings: MCF7, compound 1 μM, 24 hours
Experimental: (§4) Cell lines: MCF-7 cell lines (human breast cancer cells, available from ATCC) were cultured in MEM medium containing 10% calf serum in a 37° C., 5% CO2, and saturated humidity incubator. DMSO control group and compound intervention group (1 μM) were set. Cells were collected after the treatment for 24 hours, then 100 μL of pre-chilled cell lysate was added and cells were lysed on ice for 30 minutes, total cell protein was extracted, and protein concentration was determined and quantified by bicinchoninic acid method. After routine gelatinization, loading, electrophoresis, then transferring to membrane and blocking, rabbit anti-human CDK4 (1:450) and rabbit anti-human CDK6 (1:150) were added and incubated at 4° C. overnight. The mixture was rinsed and then secondary antibody IgG (1:5000) was added. After the rinsing it was developed by the ECL developing solution, the Bio-Rad gel imaging system was used for scanning and imaging, and the computer software was used for analysis. […] (GAPDH) was used as an internal control. Image J software was used to analyze the gray scale of each band to calculate the degradation rate of the compound to degrade CDK4/6 protein.
Target sequence in this assay (P11802 whole entry): as the sequence (P11802 whole entry, species assumed) above

CDK6 [4] = target: T2, CDK6; experiment: CDK6 protein degradation activity by Western blot in MCF-7 cells; format: cell-based; design: host or cells: MCF-7; settings: MCF7, compound 1 μM, 24 hours
Experimental: as §4
Target sequence in this assay (Q00534 whole entry): as the sequence (Q00534 whole entry, species assumed) above

T47D cells = experiment: Inhibition of proliferation of T47D cells by CCK8 assay; format: cell-based; settings: Homo sapiens, CCK8, 72 hours
Experimental: The inhibitory effect of the compound on the proliferation of T47D cells (commercially available from ATCC) was determined by the CCK8 method in vitro. The experimental steps were as follows: T47D cells were cultured in 1640 medium of 10% calf serum, seeded in a 96-well plate with 1.5×10^5/ml, and placed in a 37° C., 5% CO2 incubator. Each compound or the positive drug (Ribociclib) was dissolved in dimethyl sulfoxide (DMSO) to obtain a solution with a concentration of 100 mM, and then diluted to the desired concentration with the culture medium. The solutions were then added to the above 96-well plates. Each concentration has 3 wells with 50 μl per well. As a control, DMSO was diluted in the corresponding gradient and then added to the plate. After the 96-well plate was cultured in a 37° C., 5% CO2 cell incubator for 72 hours, 110 μl of CCK8 solution in 9% was added to each well, and it was cultured in the incubator for another 4 hours. The light absorption value at 450 nm was measured. The relative survival rate of the cells after the compound treatment was calculated based on the light absorption value. The IC50 of the compound against T47D cells was calculated by software.

SMILES | IC50 (MCF-7 cells) | inhibition at 0.1 µM (CDK4 [1]) | inhibition at 0.1 µM (CDK6 [2]) | Dmax at 1 µM (CDK4 [3]) | Dmax at 1 µM (CDK6 [4]) | IC50 (T47D cells)
CC(=O)c1c(C)c2cnc(Nc3ccc(N4CCN(CCOCCOCCNc5cccc6c5C(=O)N(C5CCC(=O)NC5=O)C6=O)CC4)cn3)nc2n(C2CCCC2)c1=O (stereo not drawn) [Compound 15] | 0.22 µM | 91% | 69% |  |  | 
CC(=O)c1c(C)c2cnc(Nc3ccc(N4CCN(CCCCCCNc5cccc6c5C(=O)N(C5CCC(=O)NC5=O)C6=O)CC4)cn3)nc2n(C2CCCC2)c1=O (stereo not drawn) [Compound 26] |  |  |  | 50 to 90% | 50 to 90% | 
CN(C)C(=O)c1cc2cnc(Nc3ccc(N4CCN(CCOCCOCCNc5cccc6c5C(=O)N(C5CCC(=O)NC5=O)C6=O)CC4)cn3)nc2n1C1CCCC1 (stereo not drawn) [Compound 17] |  | 82% | 25% | 50 to 90% | 50 to 90% | 
CN(C)C(=O)c1cc2cnc(Nc3ccc(N4CCN(CCCCCC(=O)Nc5cccc6c5C(=O)N(C5CCC(=O)NC5=O)C6=O)CC4)cn3)nc2n1C1CCCC1 (stereo not drawn) [Compound 3] | 0.08 µM | 97% | 86% | > 90% | 50 to 90% | 13.7 µM
CC(=O)c1c(C)c2cnc(Nc3ccc(N4CCN(CCCCCNC(=O)COc5cccc6c5C(=O)N(C5CCC(=O)NC5=O)C6=O)CC4)cn3)nc2n(C2CCCC2)c1=O (stereo not drawn) [Compound 38] |  |  |  | > 90% | > 90% | 
CC(=O)c1c(C)c2cnc(Nc3ccc(N4CCN(CCOCCCNc5cccc6c5C(=O)N(C5CCC(=O)NC5=O)C6=O)CC4)cn3)nc2n(C2CCCC2)c1=O (stereo not drawn) [Compound 28] |  |  |  | 50 to 90% | 50 to 90% | 
CC(=O)c1c(C)c2cnc(Nc3ccc(N4CCN(CCCCCCOc5cccc6c5C(=O)N(C5CCC(=O)NC5=O)C6=O)CC4)cn3)nc2n(C2CCCC2)c1=O (stereo not drawn) [Compound 23] |  |  |  | 50 to 90% | 50 to 90% | 
CC(=O)c1c(C)c2cnc(Nc3ccc(N4CCN(CCCCOc5cccc6c5C(=O)N(C5CCC(=O)NC5=O)C6=O)CC4)cn3)nc2n(C2CCCC2)c1=O (stereo not drawn) [Compound 24] |  | 96% | 91% | > 90% | > 90% | 
CC(=O)c1c(C)c2cnc(Nc3ccc(N4CCN(CCCOCCNc5cccc6c5C(=O)N(C5CCC(=O)NC5=O)C6=O)CC4)cn3)nc2n(C2CCCC2)c1=O (stereo not drawn) [Compound 27] |  |  |  | 50 to 90% | 50 to 90% | 
CN(C)C(=O)c1cc2cnc(Nc3ccc(N4CCN(CCCNC(=O)COc5cccc6c5C(=O)N(C5CCC(=O)NC5=O)C6=O)CC4)cn3)nc2n1C1CCCC1 (stereo not drawn) [Compound 46] |  |  |  | > 90% | 50 to 90% | 
CN(C)C(=O)c1cc2cnc(Nc3ccc(N4CCN(CCOCCOCCOCCNc5cccc6c5C(=O)N(C5CCC(=O)NC5=O)C6=O)CC4)cn3)nc2n1C1CCCC1 (stereo not drawn) [Compound 18] |  | 80% | 29% | > 90% | > 90% | 8.1 µM
CC(=O)c1c(C)c2cnc(Nc3ccc(N4CCN(CCOCCOCCOc5cccc6c5C(=O)N(C5CCC(=O)NC5=O)C6=O)CC4)cn3)nc2n(C2CCCC2)c1=O (stereo not drawn) [Compound 8] | 0.2 µM | 82% | 84% | 50 to 90% | 50 to 90% | 
CC(=O)c1c(C)c2cnc(Nc3ccc(N4CCN(CCOCCOCCOCCNc5cccc6c5C(=O)N(C5CCC(=O)NC5=O)C6=O)CC4)cn3)nc2n(C2CCCC2)c1=O (stereo not drawn) [Compound 16] | 0.3 µM | 97% | 68% | 50 to 90% | 50 to 90% | 
CC(=O)c1c(C)c2cnc(Nc3ccc(N4CCN(C(=O)COCCOCCNc5cccc6c5C(=O)N(C5CCC(=O)NC5=O)C6=O)CC4)cn3)nc2n(C2CCCC2)c1=O (stereo not drawn) [Compound 11] |  | 93% | 79% |  |  | 
CN(C)C(=O)c1cc2cnc(Nc3ccc(N4CCN(CCOCCNC(=O)COc5cccc6c5C(=O)N(C5CCC(=O)NC5=O)C6=O)CC4)cn3)nc2n1C1CCCC1 (stereo not drawn) [Compound 48] |  |  |  | > 90% | 50 to 90% | 
CC(=O)c1c(C)c2cnc(Nc3ccc(N4CCN(CCCCCCCCOc5cccc6c5C(=O)N(C5CCC(=O)NC5=O)C6=O)CC4)cn3)nc2n(C2CCCC2)c1=O (stereo not drawn) [Compound 25] |  |  |  | 50 to 90% | 50 to 90% | 
CC(=O)c1c(C)c2cnc(Nc3ccc(N4CCN(CCOCCOCCOCCOc5cccc6c5C(=O)N(C5CCC(=O)NC5=O)C6=O)CC4)cn3)nc2n(C2CCCC2)c1=O (stereo not drawn) [Compound 21] | 0.16 µM | 93% | 97% | 50 to 90% | 50 to 90% | 
CN(C)C(=O)c1cc2cnc(Nc3ccc(N4CCN(CCOCCOCCOCCOc5cccc6c5C(=O)N(C5CCC(=O)NC5=O)C6=O)CC4)cn3)nc2n1C1CCCC1 (stereo not drawn) [Compound 20] |  |  |  | 50 to 90% | 50 to 90% | 
CN(C)C(=O)c1cc2cnc(Nc3ccc(N4CCN(CCOCCOCCOc5cccc6c5C(=O)N(C5CCC(=O)NC5=O)C6=O)CC4)cn3)nc2n1C1CCCC1 (stereo not drawn) [Compound 19] |  | 80% | 43% | > 90% | 50 to 90% | 
CN(C)C(=O)c1cc2cnc(Nc3ccc(N4CCNCC4)cn3)nc2n1C1CCCC1 [Ribociclib, reference compound] |  |  |  |  |  | 68.7 µM
CN(C)C(=O)c1cc2cnc(Nc3ccc(N4CCN(CCCCCNC(=O)COc5cccc6c5C(=O)N(C5CCC(=O)NC5=O)C6=O)CC4)cn3)nc2n1C1CCCC1 (stereo not drawn) [Compound 47] |  |  |  | > 90% | 50 to 90% | 
CC(=O)c1c(C)c2cnc(Nc3ccc(N4CCN(S(=O)(=O)CCCCCOc5cccc6c5C(=O)N(C5CCC(=O)NC5=O)C6=O)CC4)cn3)nc2n(C2CCCC2)c1=O (stereo not drawn) [Compound 14] |  | 92% | 85% |  |  | 
